# Patent US20210246109A1, “POTENT AND SELECTIVE INHIBITORS OF CYTOCHROME P450” (University of Kentucky Research Foundation, priority 2020, published 2021)
# Values joined by “and” are separate entries in the source; they are usually repeats but may differ in a detail not shown here. Equal entries are not always repeated. Where two headings read alike, the source gives them in different places.
# Experiments:
# CYP1B1 = target: T1, CYP1B1 (Homo sapiens, UniProt Q16678); experiment: EROD assay in inducible CYP1B1 cell line; assay type: cell-based
# T1 construct: expressed in transfected cells
# T1 sequence (Q16678 1-543): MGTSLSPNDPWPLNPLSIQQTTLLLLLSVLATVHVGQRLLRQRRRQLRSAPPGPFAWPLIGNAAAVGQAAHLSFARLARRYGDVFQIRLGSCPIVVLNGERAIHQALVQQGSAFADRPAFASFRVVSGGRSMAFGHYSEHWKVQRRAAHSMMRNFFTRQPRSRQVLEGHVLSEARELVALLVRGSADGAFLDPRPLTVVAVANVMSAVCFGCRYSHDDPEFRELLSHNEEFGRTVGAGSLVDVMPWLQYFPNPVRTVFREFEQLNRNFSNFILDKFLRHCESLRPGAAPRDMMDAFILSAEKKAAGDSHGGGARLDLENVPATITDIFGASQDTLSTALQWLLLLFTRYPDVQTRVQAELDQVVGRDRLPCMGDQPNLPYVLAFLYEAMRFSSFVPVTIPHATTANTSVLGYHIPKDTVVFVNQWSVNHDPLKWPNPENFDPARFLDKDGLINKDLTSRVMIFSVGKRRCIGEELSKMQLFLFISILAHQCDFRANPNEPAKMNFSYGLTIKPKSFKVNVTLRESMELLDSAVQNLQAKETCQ
# Description: (§1) The activity of the inhibitors was assessed in a novel cell based assay generated for the purpose of this project. Enzymatic turnover of CYP1B1 was measured using the ethoxy-resorufin-O-deethylase (EROD) assay with the fluorescent substrate, resorufin ethyl ether. Cell lines were generated where the gene for CYP1B1 alone or CYP1B1 and cytochrome P450 reductase (CPR) were both under the control of an inducible promoter. A cell line was generated for counter screening where the gene for CYP1A1 was used. CYP1A1 is the closest family member to CYP1B1.
# [1] = target: T2, pooled human liver microsomes (pHLMs) (Homo sapiens, UniProt P05177); experiment: EROD counterscreen in pooled human liver microsomes; assay type: biochemical; conditions: human, microsomes, Table 3; read-out: IC50 pHLM
# T2 sequence (P05177 2-516): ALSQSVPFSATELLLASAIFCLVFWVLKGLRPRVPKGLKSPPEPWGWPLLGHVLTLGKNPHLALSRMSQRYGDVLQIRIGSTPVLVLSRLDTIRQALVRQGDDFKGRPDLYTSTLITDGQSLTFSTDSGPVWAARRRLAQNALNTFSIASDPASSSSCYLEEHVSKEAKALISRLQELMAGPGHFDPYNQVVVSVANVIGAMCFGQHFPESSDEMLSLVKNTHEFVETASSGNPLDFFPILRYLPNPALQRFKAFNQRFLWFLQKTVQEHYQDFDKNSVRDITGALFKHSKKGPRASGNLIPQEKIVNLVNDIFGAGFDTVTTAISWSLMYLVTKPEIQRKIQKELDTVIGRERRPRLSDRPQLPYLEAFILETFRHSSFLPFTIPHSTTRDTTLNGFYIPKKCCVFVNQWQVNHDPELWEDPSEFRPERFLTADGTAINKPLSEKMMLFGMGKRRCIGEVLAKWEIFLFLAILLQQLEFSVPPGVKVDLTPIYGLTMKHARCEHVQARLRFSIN
# From the text: Human liver microsomes were used as a counterscreen to experimentally determine the magnitude of inhibitor selectivity.
# CYP1A1 = target: T3, CYP1A1 (Homo sapiens, UniProt P04798); experiment: EROD assay in CYP1A1 counter-screen cell line; assay type: cell-based; conditions: for SI 1B1:1A1: selectivity index
# T3 construct: expressed in transfected cells
# T3 sequence (P04798 1-512): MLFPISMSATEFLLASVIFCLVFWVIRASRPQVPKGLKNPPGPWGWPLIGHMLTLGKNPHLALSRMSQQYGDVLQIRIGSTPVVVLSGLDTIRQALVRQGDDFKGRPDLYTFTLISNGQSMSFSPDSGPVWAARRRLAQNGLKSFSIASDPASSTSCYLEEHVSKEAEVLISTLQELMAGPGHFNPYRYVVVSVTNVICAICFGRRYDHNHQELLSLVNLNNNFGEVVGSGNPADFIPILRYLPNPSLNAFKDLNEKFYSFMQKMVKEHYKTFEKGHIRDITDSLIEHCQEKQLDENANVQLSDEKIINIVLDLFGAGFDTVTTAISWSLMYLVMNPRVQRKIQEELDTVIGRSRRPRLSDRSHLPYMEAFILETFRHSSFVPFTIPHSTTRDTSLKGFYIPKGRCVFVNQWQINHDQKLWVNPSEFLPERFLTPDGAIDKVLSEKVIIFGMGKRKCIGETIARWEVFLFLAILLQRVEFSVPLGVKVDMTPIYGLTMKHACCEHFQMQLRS
# Description: as §1
# [2] = Table 2, EROD assay, read-out: IC50 CYP1B1
# [3] = Table 2, EROD assay, read-out: IC50 CYP1A1
SMILES,"IC50 (CYP1B1; Table 3, read-out: IC50 1B1)","IC50 (CYP1A1; Table 3, read-out: IC50 1A1)",also measured
COc1ccc(/C=C/c2ccccc2)c(OC)c1 [Compound 1],,,"activity as CYP1B1 inhibitor, in words (CYP1B1): poor activity"
COc1ccc(/C=C/c2ccncc2)c(OC)c1 [Compound 6],,,"activity as CYP1B1 inhibitor, in words (CYP1B1): potent"
COc1ccc(/C=C/c2cc[n+](C)cn2)c(OC)c1 [Compound 7],,,"activity as CYP1B1 inhibitor, in words (CYP1B1): poor activity"
N#CCOc1ccc(/C=C/c2ccncn2)cc1 [Compound 13],,,"activity as CYP1B1 inhibitor, in words (CYP1B1): potent"
O=c1[nH]c(-c2ccccn2)nc2ccccc12 [GL518],2440 nM,,
COc1cc(OCC#N)ccc1-c1nc2ccccc2c(=O)[nH]1 [GL521],0.51 nM and 1.3 nM,1230 nM and 1180 nM,IC50 [1]: > 10000 nM
N#CCOc1ccc(/C=N/c2ccccc2C(N)=O)cc1 [GL542],51 nM,> 10000 nM,
N#CCOc1ccc(-c2nc3ccccc3c(=O)[nH]2)c(OCC#N)c1 [GL545],,4400 nM,
N#CCOc1ccc(-c2nc3ccccc3c(=O)[nH]2)cc1OCC#N [GL546],20.4 nM,3500 nM,
COc1cc(-c2nc3ccc(I)cc3c(=O)[nH]2)ccc1OCC#N [GL551],< 0.25 nM,560 nM,IC50 [1]: > 3000 nM
COc1cc(-c2nc3ccc(C#Cc4ccccc4)cc3c(=O)[nH]2)ccc1OCC#N [GL552],1.8 nM,> 10000 nM,
COc1ccc(-c2nc3ccccc3c(=O)[nH]2)cc1 [GL553],3.8 nM,4760 nM,
COc1ccc(-c2nc(OCC#N)c3ccccc3n2)cc1 [GL554],3.5 nM,3330 nM,
COc1ccc(-c2nc(OC)c3ccccc3n2)cc1 [GL556],6.7 nM,2590 nM,
COc1cc(-c2nc(OCC#N)c3ccccc3n2)ccc1OCC#N [GL557],< 0.7 nM,1720 nM,
COc1nc(-c2ccc(OCC#N)cc2)nc2ccccc12 [GL558],< 0.7 nM,2460 nM,
N#CCOc1ccc(-c2nc(OCCCCCCBr)c3ccccc3n2)cc1 [GL564],< 2.5 nM,1940 nM,IC50 [1]: > 10000 nM
N#CCOc1ccc(-c2nc(OCCCCCCN=[N+]=[N-])c3ccccc3n2)cc1 [GL565],< 2.5 nM,1870 nM,IC50 [1]: > 10000 nM
CC(C)(C)OC(=O)NCCCOc1nc(-c2ccc(OCC#N)cc2)nc2ccccc12 [GL571],< 2.5 nM,1280 nM,IC50 [1]: > 10000 nM
N#CCOc1ccc(-c2nc(OCCCN)c3ccccc3n2)cc1 [GL572],< 2.5 nM,2120 nM,IC50 [1]: > 10000 nM
O=C(NCCCOc1ccc(CCc2ccncn2)cc1)OCCOCCOCCOC(=O)NC12CC3CC(CC(C3)C1)C2 [GL594],9400 nM,1100 nM,
[N-]=[N+]=NCCCOc1ccc(-c2nc3ccccc3c(=O)[nH]2)cc1 [GL627],6.1 nM,,
N#CCOc1nc(-c2ccc(OCCCN=[N+]=[N-])cc2)nc2ccccc12 [GL628],126 nM,,
N#CCOc1ccc(-c2nc(-c3cccnc3)cs2)cc1 [GL641],,,IC50 (CYP1B1; [2]): 0.381 nM; IC50 (CYP1A1; [3]): 2610 nM; SI 1B1:1A1 (CYP1A1): 6833

SMILES,"IC50 (CYP1B1; Table 3, read-out: IC50 1B1)","IC50 (CYP1A1; Table 3, read-out: IC50 1A1)",also measured
O=c1[nH]c(-c2ccc(Cl)cc2)nc2ccccc12 [GL642],22 nM,85 nM,
N#CCOc1nc(-c2ccc(Cl)cc2)nc2ccccc12 [GL643],0.1 nM,125 nM,
N#Cc1ccc(-c2csc(-c3ccc(O)cc3)n2)cc1 [GL649],,,IC50 (CYP1B1; [2]): 931 nM; IC50 (CYP1A1; [3]): 16400 nM; SI 1B1:1A1 (CYP1A1): 17.6
O=c1[nH]c(-c2ccc3ccccc3n2)nc2ccccc12 [GL651],2.8 nM,1100 nM,
N#CCOc1ccc(/C=C/c2ccc(COC#N)cc2COC#N)cc1 [GL652],19 nM,1860 nM,
N#Cc1ccc(-c2csc(-c3cccnc3)n2)cc1 [GL656],,,IC50 (CYP1B1; [2]): 391 nM
Cn1c(-c2ccc3ccccc3n2)nc2ccccc2c1=O [GL659],> 1000 nM,> 10000 nM,
C#CCOc1ccc(-c2nc(-c3ccc(C#N)cc3)cs2)cc1 [GL664],,,IC50 (CYP1B1; [2]): 202 nM; IC50 (CYP1A1; [3]): 696 nM; SI 1B1:1A1 (CYP1A1): 3.44
Fc1ccc(-c2csc(-c3ccccn3)n2)cc1C(F)(F)F [GL666],,,IC50 (CYP1B1; [2]): 83.8 nM; IC50 (CYP1A1; [3]): 240 nM; SI 1B1:1A1 (CYP1A1): 2.86
COc1ccc(-c2nc(-c3ccc(O)cc3)cs2)c(OC)c1 [GL673],,,IC50 (CYP1B1; [2]): 101 nM
Oc1ccc(-c2nc(-c3ccc(F)c(C(F)(F)F)c3)cs2)cc1 [GL678],,,IC50 (CYP1B1; [2]): 208 nM; IC50 (CYP1A1; [3]): 14700 nM; SI 1B1:1A1 (CYP1A1): 70.5
O=c1[nH]c(-c2ccc(F)c(C(F)(F)F)c2)nc2ccccc12 [GL-700],41 nM,2300 nM,
N#CCOc1nc(-c2ccc(F)c(C(F)(F)F)c2)nc2ccccc12 [GL-701],,250 nM,
Fc1ccc(-c2nc3ccccc3[nH]2)cc1C(F)(F)F [GL-706],85 nM,320 nM,
c1ccc2nc(-c3nc4ccccc4[nH]3)ccc2c1 [GL-707],44 nM,760 nM,
COc1cc(C(=O)/C=C/c2ccc3ccccc3n2)cc(OC)c1OC [GL-713],550 nM,3000 nM,
COc1ccc(/C=C/C(=O)c2cc(OC)c(OC)c(OC)c2)c(OC)c1 [GL-714],1100 nM,5200 nM,
Oc1nc(-c2ccc(F)cc2)nc2ccccc12 [GL-717],1900 nM,3900 nM,
N#CCOc1nc(-c2ccc(F)cc2)nc2ccccc12 [GL-718],850 nM,15 nM,
Fc1ccc(-c2nc3ccccc3[nH]2)cc1 [GL-719],3000 nM,5200 nM,
O=c1[nH]c(-c2cccc(C(F)(F)F)c2)nc2ccccc12 [GL-728],200 nM,,
N#CCOc1nc(-c2cccc(C(F)(F)F)c2)nc2ccccc12 [GL-729],,50 nM,
N#CCOc1ccc(-c2nc(OCC#N)c3ccccc3n2)cc1 [GL- 561],,3600 nM,
